In PubChem BioAssay AID330 (DTP/NCI, 2004):
Values joined by “and” are separate entries in the source; they are usually repeats but may differ in a detail not shown here. Identical values can stand only once. Inconclusive results and toxic doses are left out.

Tested on: P388 leukemia ip, CD2F1 mice, survival T/C
Experiment: NCI In Vivo Anticancer Drug Screen. Data for tumor model P388 Leukemia (intraperitoneal) in CD2F1 (CDF1) mice
Settings: endpoint: median survival time, higher = longer survival
Method in brief: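 Mice carrying the transplanted tumor received test compound or vehicle. Survival was recorded in each group, and the value is the treated-group measurement divided by that of the vehicle-treated control group.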

[1] = dose: 60.0 mg/kg/injection, schedule: Q01DX005 (ip), vehicle: saline with Tween-80
[2] = dose: 120.0 mg/kg/injection, schedule: Q01DX005 (ip), vehicle: saline with Tween-80
[3] = dose: 240.0 mg/kg/injection, schedule: Q01DX005 (ip), vehicle: saline with Tween-80
[4] = dose: 100.0 mg/kg/injection, schedule: Q01DX001 (ip), vehicle: saline
[5] = dose: 400.0 mg/kg/injection, schedule: Q01DX001 (ip), vehicle: saline with Tween-80
[6] = dose: 50.0 mg/kg/injection, schedule: Q01DX009 (ip), vehicle: saline
[7] = dose: 100.0 mg/kg/injection, schedule: Q01DX009 (ip), vehicle: saline
[8] = dose: 200.0 mg/kg/injection, schedule: Q01DX009 (ip), vehicle: saline
[9] = dose: 25.0 mg/kg/injection, schedule: Q01DX005 (ip), vehicle: saline with Tween-80
[10] = dose: 50.0 mg/kg/injection, schedule: Q01DX005 (ip), vehicle: saline with Tween-80
[11] = dose: 100.0 mg/kg/injection, schedule: Q01DX005 (ip), vehicle: saline with Tween-80
[12] = dose: 200.0 mg/kg/injection, schedule: Q01DX005 (ip), vehicle: saline with Tween-80
[13] = dose: 50.0 mg/kg/injection, schedule: Q01DX009 (ip), vehicle: Klucel (hydroxypropylcellulose) (HPC)
[14] = dose: 100.0 mg/kg/injection, schedule: Q01DX009 (ip), vehicle: Klucel (hydroxypropylcellulose) (HPC)
[15] = dose: 200.0 mg/kg/injection, schedule: Q01DX009 (ip), vehicle: Klucel (hydroxypropylcellulose) (HPC)
[16] = dose: 50.0 mg/kg/injection, schedule: Q01DX005 (ip), vehicle: Klucel (hydroxypropylcellulose) (HPC)
[17] = dose: 100.0 mg/kg/injection, schedule: Q01DX005 (ip), vehicle: Klucel (hydroxypropylcellulose) (HPC)
[18] = dose: 60.0 mg/kg/injection, schedule: Q01DX005 (ip), vehicle: Klucel (hydroxypropylcellulose) (HPC)
[19] = dose: 120.0 mg/kg/injection, schedule: Q01DX005 (ip), vehicle: Klucel (hydroxypropylcellulose) (HPC)
[20] = dose: 12.5 mg/kg/injection, schedule: Q01DX009 (ip), vehicle: saline with Tween-80
[21] = dose: 25.0 mg/kg/injection, schedule: Q01DX009 (ip), vehicle: saline with Tween-80
[22] = dose: 50.0 mg/kg/injection, schedule: Q01DX009 (ip), vehicle: saline with Tween-80
[23] = dose: 240.0 mg/kg/injection, schedule: Q01DX005 (ip), vehicle: Klucel (hydroxypropylcellulose) (HPC)

COc1ccc(-c2cc3c(c4cc(OC)ccc24)C(=O)OC3=O)cc1
T/C [1]: 93 % of control | T/C [2]: 97 % of control | T/C [3]: 98 % of control

CC1/C(=N\N=C(N)N)c2ccccc2/C1=N/N=C(N)N (centres undefined)
T/C (dose: 25.0 mg/kg/injection, schedule: Q01DX001 (ip), vehicle: saline): 106 % of control | T/C (dose: 50.0 mg/kg/injection, schedule: Q01DX001 (ip), vehicle: saline): 102 % of control | T/C [4]: 99 % of control

CCC(c1ccc(OC)cc1)C(NCC(=O)N/N=C/c1ccccc1[N+](=O)[O-])c1ccc(OC)cc1 (centres undefined)
T/C (dose: 3.12 mg/kg/injection, schedule: Q01DX001 (ip), vehicle: saline with Tween-80): 94 % of control | T/C (dose: 6.25 mg/kg/injection, schedule: Q01DX001 (ip), vehicle: saline with Tween-80): 88 % of control | T/C (dose: 12.5 mg/kg/injection, schedule: Q01DX001 (ip), vehicle: saline with Tween-80): 88 % of control | T/C [5]: 96 % of control

C1CNNCCNN1
T/C [6]: 112 % of control | T/C [7]: 106 % of control and 108 % of control and 90 % of control | T/C [8]: 109 % of control and 115 % of control and 89 % of control | T/C (dose: 400.0 mg/kg/injection, schedule: Q01DX009 (ip), vehicle: saline): 112 % of control and 120 % of control and 93 % of control | T/C (dose: 800.0 mg/kg/injection, schedule: Q01DX009 (ip), vehicle: saline): 121 % of control

Cc1cc2cc3ccc(Cl)nn3c2nn1
T/C [9]: 104 % of control | T/C [10]: 99 % of control | T/C [11]: 95 % of control | T/C [12]: 96 % of control

CC(C)(S)CN
T/C [4]: 104 % of control | T/C (dose: 200.0 mg/kg/injection, schedule: Q01DX001 (ip), vehicle: saline): 108 % of control | T/C (dose: 400.0 mg/kg/injection, schedule: Q01DX001 (ip), vehicle: saline): 103 % of control

CC1(C)CCC23CCC4(C)C(CCC5C6(C)CCC(O)C(C)(C)C6CCC54C)C2C1OC3 (centres undefined)
T/C [13]: 87 % of control | T/C [14]: 87 % of control | T/C [15]: 89 % of control

CCC(=O)Oc1ccc(N=Nc2ccc(O)c(/C=N\NC(=O)CNc3ccccc3)c2)cc1
T/C (dose: 100.0 mg/kg/injection, schedule: Q01DX001 (ip), vehicle: saline with Tween-80): 88 % of control | T/C (dose: 200.0 mg/kg/injection, schedule: Q01DX001 (ip), vehicle: saline with Tween-80): 86 % of control | T/C [5]: 100 % of control

CCCCNc1c(C(=O)OCC)cnc2c1cnn2CC
T/C (dose: 100.0 mg/kg/injection, schedule: Q04DX002 (ip), vehicle: saline with Tween-80): 102 % of control | T/C (dose: 200.0 mg/kg/injection, schedule: Q04DX002 (ip), vehicle: saline with Tween-80): 102 % of control | T/C (dose: 400.0 mg/kg/injection, schedule: Q04DX002 (ip), vehicle: saline with Tween-80): 90 % of control

Nc1nnc2n(N)cnn12
T/C (dose: 100.0 mg/kg/injection, schedule: Q04DX002 (ip), vehicle: water): 114 % of control | T/C (dose: 200.0 mg/kg/injection, schedule: Q04DX002 (ip), vehicle: water): 109 % of control | T/C (dose: 400.0 mg/kg/injection, schedule: Q04DX002 (ip), vehicle: water): 106 % of control

O=C(NCCCCN1CC1)C(=O)NCCCCN1CC1
T/C (dose: 0.78 mg/kg/injection, schedule: Q04DX003 (ip), vehicle: Klucel (hydroxypropylcellulose) (HPC)): 120 % of control | T/C (dose: 3.12 mg/kg/injection, schedule: Q04DX003 (ip), vehicle: Klucel (hydroxypropylcellulose) (HPC)): 162 % of control | T/C (dose: 6.25 mg/kg/injection, schedule: Q04DX003 (ip), vehicle: Klucel (hydroxypropylcellulose) (HPC)): 178 % of control

c1ccc(CN2COCO[C@H]3CCC[C@@H]32)cc1
T/C [16]: 107 % of control | T/C [17]: 104 % of control

N#CCCn1ncc(=O)[nH]c1=O
T/C (dose: 50.0 mg/kg/injection, schedule: Q01DX005 (ip), vehicle: water): 101 % of control | T/C (dose: 100.0 mg/kg/injection, schedule: Q01DX005 (ip), vehicle: water): 104 % of control | T/C (dose: 200.0 mg/kg/injection, schedule: Q01DX005 (ip), vehicle: water): 107 % of control

Oc1cc2c(cc1C(c1ccc(F)cc1)N1CCCCC1)OCO2 (centres undefined)
T/C [1]: 111 % of control | T/C [2]: 116 % of control | T/C [3]: 115 % of control

CC(=O)OC(=O)C(NC(=O)C(N)CC(C)C)C(C)C (centres undefined)
T/C [6]: 103 % of control | T/C [7]: 94 % of control | T/C [8]: 100 % of control

Fc1cccc(Cl)c1C(Nc1cnccn1)Nc1cnccn1
T/C [18]: 104 % of control | T/C [19]: 119 % of control

CCOC(=O)c1c[nH]n(Cc2ccccc2)c1=O
T/C [1]: 100 % of control | T/C [2]: 100 % of control | T/C [3]: 95 % of control

COC(=O)c1cc(=O)nc(NN)s1
T/C [10]: 92 % of control | T/C [11]: 90 % of control

Sc1cc2c(c3ccccc13)Nc1ccccc1S2
T/C [13]: 92 % of control | T/C [14]: 97 % of control | T/C [15]: 97 % of control

COC(=O)c1nc(N)nc(C(=O)OC)c1C(=O)c1ccc([N+](=O)[O-])cc1
T/C [1]: 105 % of control | T/C [2]: 97 % of control

CC1(c2ccccc2)CCCC(C#N)C1=N (centres undefined)
T/C (dose: 12.5 mg/kg/injection, schedule: Q01DX001 (ip), vehicle: Klucel (hydroxypropylcellulose) (HPC)): 106 % of control | T/C (dose: 25.0 mg/kg/injection, schedule: Q01DX001 (ip), vehicle: Klucel (hydroxypropylcellulose) (HPC)): 100 % of control | T/C (dose: 50.0 mg/kg/injection, schedule: Q01DX001 (ip), vehicle: Klucel (hydroxypropylcellulose) (HPC)): 103 % of control

O=C(O)c1ccc(=O)oc1
T/C [20]: 98 % of control | T/C [21]: 94 % of control | T/C [22]: 116 % of control | T/C (dose: 100.0 mg/kg/injection, schedule: Q01DX009 (ip), vehicle: saline with Tween-80): 116 % of control

CC(=O)[C@@]1(O)CC[C@H]2[C@@H]3C=C(C)C4=CC(=O)CC[C@]4(C)[C@@]3(F)[C@@H](O)C[C@@]21C
T/C [20]: 100 % of control | T/C [21]: 90 % of control | T/C [22]: 109 % of control | T/C (dose: 100.0 mg/kg/injection, schedule: Q04DX003 (ip), vehicle: saline with Tween-80): 91 % of control | T/C (dose: 200.0 mg/kg/injection, schedule: Q04DX003 (ip), vehicle: saline with Tween-80): 95 % of control | T/C (dose: 400.0 mg/kg/injection, schedule: Q04DX003 (ip), vehicle: saline with Tween-80): 100 % of control

CCc1c(C(=O)OC)c(C(=O)OC)c(-c2ccc(C)cc2)n1CCn1c(CC)c(C(=O)OC)c(C(=O)OC)c1-c1ccc(C)cc1
T/C [18]: 96 % of control | T/C [19]: 101 % of control | T/C [23]: 92 % of control

CCCC(=O)C1C(c2ccccc2)CC(=O)C(CC)C1c1ccccc1 (centres undefined)
T/C (dose: 12.5 mg/kg/injection, schedule: Q01DX005 (ip), vehicle: saline with Tween-80): 90 % of control | T/C [9]: 95 % of control | T/C [10]: 88 % of control and 90 % of control | T/C [12]: 88 % of control

CCCCCCCCCCCCCCCCS[As](C)C
T/C [10]: 92 % of control | T/C [11]: 100 % of control | T/C [12]: 96 % of control

FC(F)(F)C(OCC1CO1)(c1ccccc1)C(F)(F)F (centres undefined)
T/C [13]: 89 % of control | T/C [14]: 97 % of control | T/C [15]: 97 % of control

COc1cc2c(cc1C1COc3cc4occc4cc3C1=O)OCO2 (centres undefined)
T/C (dose: 12.5 mg/kg/injection, schedule: Q01DX005 (ip), vehicle: Klucel (hydroxypropylcellulose) (HPC)): 97 % of control | T/C (dose: 25.0 mg/kg/injection, schedule: Q01DX005 (ip), vehicle: Klucel (hydroxypropylcellulose) (HPC)): 95 % of control | T/C [16]: 92 % of control | T/C [17]: 95 % of control | T/C (dose: 200.0 mg/kg/injection, schedule: Q01DX005 (ip), vehicle: Klucel (hydroxypropylcellulose) (HPC)): 95 % of control

CC1(C)SC(=O)N(CCC#CCCc2ccccc2)C1=O
T/C [18]: 102 % of control | T/C [19]: 100 % of control | T/C [23]: 92 % of control
